Reference: patent US8519145B2, “Aryl compounds as PPAR ligands and their use” (Seoul National University Industry Foundation, priority 2006, dated 2013)

Tests used:
hPPARδ = biological target: T1, hPPARδ (Homo sapiens, UniProt Q03181); test: Transfection assay (luciferase reporter), PPARδ; type: cell-based; details: CV-1 cells, full length PPAR plasmid, 24 hours
T1 construct: Full length PPARs plasmid DNA; expressed in transfected cells; host or cells: CV-1 cells
T1 sequence (Q03181 1-441): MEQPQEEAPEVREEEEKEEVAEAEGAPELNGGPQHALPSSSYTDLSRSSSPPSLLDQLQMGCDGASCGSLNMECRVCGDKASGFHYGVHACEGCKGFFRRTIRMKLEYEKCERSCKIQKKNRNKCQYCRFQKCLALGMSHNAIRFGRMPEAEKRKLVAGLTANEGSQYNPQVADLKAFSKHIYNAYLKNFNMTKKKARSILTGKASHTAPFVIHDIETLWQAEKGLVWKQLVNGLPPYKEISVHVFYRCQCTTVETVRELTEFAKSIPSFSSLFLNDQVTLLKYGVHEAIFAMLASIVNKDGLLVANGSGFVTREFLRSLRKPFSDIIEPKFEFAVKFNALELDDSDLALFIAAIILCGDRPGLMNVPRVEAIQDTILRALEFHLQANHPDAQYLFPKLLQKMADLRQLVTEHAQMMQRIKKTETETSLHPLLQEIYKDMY
Method: (§1) The PPARδ activity of the compound represented by formula (I) of the present invention was confirmed by transfection assay. In addition, the selectivity to PPAR subtypes, PPARα and PPARγ was examined. Cytotoxicity was tested by MTT assay and in vivo activity was investigated by animal experiment.
(§2) CV-1 cells were used in this assay. The cells were inoculated in a 96-well plate containing DMEM supplemented with 10% FBS, DBS (delipidated) and 1% penicillin/streptomycin and cultured in a 37° C., 5% CO2 incubator. The experiment was performed according to the steps of inoculation, transfection, sample treatment and confirmation. Particularly, CV-1 cells were inoculated in a 96 well-plate (5000 cells/well), followed by transfection 24 hours later. Full length PPARs plasmid DNA, reporter DNA confirming PPARs activity owing to its luciferase activity, β-galactosidase DNA providing information on transfection efficiency, and transfection reagent were used for the transfection. Samples were dissolved in dimethylsulfoxide (DMSO), which were treated to the cells via media at different concentrations. After culturing the cells in the incubator for 24 hours, the cells were lysed by using lysis buffer. Luciferase activity and β-galactosidase activity were measured with Luminometer and a microplate reader. The obtained values of luciferase were modified by the values of β-galactosidase. A graph was made with those values and EC50 was calculated.

hPPARα = biological target: T2, hPPARα (Homo sapiens, UniProt Q07869); test: Transfection assay (luciferase reporter), PPARα; type: cell-based; details: CV-1 cells, full length PPAR plasmid, 24 hours
T2 construct: Full length PPARs plasmid DNA; expressed in transfected cells; host or cells: CV-1 cells
T2 sequence (Q07869 1-468): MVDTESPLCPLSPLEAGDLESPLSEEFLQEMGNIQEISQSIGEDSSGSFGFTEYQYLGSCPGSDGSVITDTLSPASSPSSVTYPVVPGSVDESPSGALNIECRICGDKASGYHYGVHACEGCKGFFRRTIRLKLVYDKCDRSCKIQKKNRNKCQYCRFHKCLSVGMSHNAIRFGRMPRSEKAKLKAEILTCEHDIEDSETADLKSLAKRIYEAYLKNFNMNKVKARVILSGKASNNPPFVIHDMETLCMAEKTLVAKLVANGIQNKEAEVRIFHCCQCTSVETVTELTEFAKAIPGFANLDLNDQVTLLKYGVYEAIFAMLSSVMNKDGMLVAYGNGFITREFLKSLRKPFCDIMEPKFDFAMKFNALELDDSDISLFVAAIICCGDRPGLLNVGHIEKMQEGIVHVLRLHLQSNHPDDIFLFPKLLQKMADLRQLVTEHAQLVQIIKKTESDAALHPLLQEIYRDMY
Method: as §1, §2

hPPARγ = biological target: T3, hPPARγ (Homo sapiens, UniProt P37231); test: Transfection assay (luciferase reporter), PPARγ; type: cell-based; details: CV-1 cells, full length PPAR plasmid, 24 hours
T3 construct: Full length PPARs plasmid DNA; expressed in transfected cells; host or cells: CV-1 cells
T3 sequence (P37231 1-505): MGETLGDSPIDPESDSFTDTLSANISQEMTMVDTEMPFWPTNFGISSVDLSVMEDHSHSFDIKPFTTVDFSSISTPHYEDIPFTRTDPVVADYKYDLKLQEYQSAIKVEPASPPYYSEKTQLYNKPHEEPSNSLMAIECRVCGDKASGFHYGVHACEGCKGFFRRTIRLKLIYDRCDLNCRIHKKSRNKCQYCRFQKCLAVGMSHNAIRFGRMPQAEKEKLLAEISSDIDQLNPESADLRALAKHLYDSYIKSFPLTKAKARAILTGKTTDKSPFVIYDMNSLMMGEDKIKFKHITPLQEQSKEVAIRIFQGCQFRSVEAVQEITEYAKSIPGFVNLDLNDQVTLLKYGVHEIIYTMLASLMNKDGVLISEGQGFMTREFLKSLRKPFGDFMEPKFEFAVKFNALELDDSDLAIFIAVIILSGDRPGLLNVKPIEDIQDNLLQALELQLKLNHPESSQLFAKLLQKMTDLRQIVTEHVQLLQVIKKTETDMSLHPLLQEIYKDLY
Method: as §1, §2

[1] = GTT (glucose tolerance test), diabetes improving effect; type: in vivo, mice; details: 10 mg/Kg/day oral; for fasting blood glucose versus control: 57 days; for diabetes improving effect: GTT
Method: Diabetes Improving Effect
GTT (glucose tolerance test) was performed to confirm the diabetes improving effect of the compound of the present invention. Glucose (1.5 g/Kg) was intra-abdominally administered to the mice pre-treated orally with samples for 57 days. Blood glucose was measured every hour. Fasting blood glucose was lower in the S14, S46 and S106 (10 mg/Kg/day) treated groups than in control. […] In the meantime, the blood glucose level was not recovered to normal in the vehicle treated group even after 120 minutes.

[2] = Morris water maze test, treatment during pregnancy and lactation; type: in vivo; details: 10 mg/kg oral to pregnant mice in pregnancy and lactation; control 24.2 sec
Method: An animal test was performed to investigate the therapeutic effect of the compound of the present invention on dementia and Parkinson's disease based on the memory improving effect thereof. To confirm the effect of the compound of the present invention in the period of brain development, the compound was orally administered to pregnant mice at the concentration of 10 mg/kg in the periods of pregnancy and lactation. Morris water maze test was performed to detect any changes of the brain functions of the treatment group and the control group. This test facilitates the study of spatial learning and memory, which largely depends on the hippocampus in the brain.

SMILES	EC50 (hPPARδ)	EC50 hPPARα (hPPARα)	EC50 hPPARγ (hPPARγ)	fasting blood glucose versus control [1]	diabetes improving effect [1]	average time spent to find the platform [2]
Cc1cc(SC(Cc2ccccc2)c2ccc(-c3ccc(C(F)(F)F)cc3)cc2)ccc1OCC(=O)O (stereo not drawn) [Compound S14]	2.6 nM	ia	ia	lower	had diabetes improving effect	5.2 s
Cc1cc(SC(Cc2ccccc2)c2ccc(-c3ccc(C(F)(F)F)cc3)nc2)ccc1OCC(=O)O (stereo not drawn) [Compound 106]	3.2 nM	ia	ia	lower	had diabetes improving effect	6.1 s
Cc1cc(SC(Cc2ccccc2)c2ccc(-c3cc(F)c(F)c(F)c3)cc2)ccc1OCC(=O)O (stereo not drawn) [Compound 46]	3.7 nM	ia	ia	lower	had diabetes improving effect	7.8 s
